From ChEMBL document CHEMBL4376868, “Structure-Activity Relationship Study of Novel 6-Aryl-2-benzoyl-pyridines as Tubulin Polymerization Inhibitors with Potent Antiproliferative Properties” (J Med Chem, 2020)
Calls of active or inactive are those of the source. The rule behind the calls is not given here.

Key:
RPMI-7951 = experiment: Antiproliferative activity against human RPMI7951 cells measured after 72 hrs by MTS assay; type: functional, cell-based; details: RPMI-7951, 72 h
SK-BR-3 = experiment: Antiproliferative activity against human SK-BR-3 cells measured after 72 hrs by MTS assay; type: functional, cell-based; details: SK-BR-3, 72 h
A-375 = experiment: Antiproliferative activity against human A375 cells measured after 72 hrs by MTS assay; type: functional, cell-based; details: A-375, 72 h
MDA-MB-231 = experiment: Antiproliferative activity against human MDA-MB-231 cells measured after 72 hrs by MTS assay; type: functional, cell-based; details: MDA-MB-231, 72 h
MDA-MB-453 = experiment: Antiproliferative activity against human MDA-MB-453 cells measured after 72 hrs by MTS assay; type: functional, cell-based; details: MDA-MB-453, 72 h
M14 = experiment: Antiproliferative activity against human M14 cells measured after 72 hrs by MTS assay; type: functional, cell-based; details: M14, 72 h
Tubulin (Sus scrofa) = Tubulin (Sus scrofa) (UniProt P02554+P02550); experiment: Inhibition of porcine brain tubulin polymerization at 10 uM measured at 30 secs interval for 65 mins by spectrophotometric method
Chain of Tubulin (Sus scrofa) (P02550 whole entry, looked up): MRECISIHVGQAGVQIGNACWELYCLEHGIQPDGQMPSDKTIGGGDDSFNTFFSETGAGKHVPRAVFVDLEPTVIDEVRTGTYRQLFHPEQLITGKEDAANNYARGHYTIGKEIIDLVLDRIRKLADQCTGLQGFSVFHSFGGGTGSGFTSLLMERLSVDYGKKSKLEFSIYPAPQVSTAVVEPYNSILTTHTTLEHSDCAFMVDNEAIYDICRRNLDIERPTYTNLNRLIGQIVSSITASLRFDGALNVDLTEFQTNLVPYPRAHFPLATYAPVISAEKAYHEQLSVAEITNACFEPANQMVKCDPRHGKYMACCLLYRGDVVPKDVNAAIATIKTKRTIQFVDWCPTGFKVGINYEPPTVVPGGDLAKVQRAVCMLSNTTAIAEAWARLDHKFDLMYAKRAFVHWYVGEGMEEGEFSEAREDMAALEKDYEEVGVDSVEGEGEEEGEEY
Chain of Tubulin (Sus scrofa) (P02554 whole entry, looked up): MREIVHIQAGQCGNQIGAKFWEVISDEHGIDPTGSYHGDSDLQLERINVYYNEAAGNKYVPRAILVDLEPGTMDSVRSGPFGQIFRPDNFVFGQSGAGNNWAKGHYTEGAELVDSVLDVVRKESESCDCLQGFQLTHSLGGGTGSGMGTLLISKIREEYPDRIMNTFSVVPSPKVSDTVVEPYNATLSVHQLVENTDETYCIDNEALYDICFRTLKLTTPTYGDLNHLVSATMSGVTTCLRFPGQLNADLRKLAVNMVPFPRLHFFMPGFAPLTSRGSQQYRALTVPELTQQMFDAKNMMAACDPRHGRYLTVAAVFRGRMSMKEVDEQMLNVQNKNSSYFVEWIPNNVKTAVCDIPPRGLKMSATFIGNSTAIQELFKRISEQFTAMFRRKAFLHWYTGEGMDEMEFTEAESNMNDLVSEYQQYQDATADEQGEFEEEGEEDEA

Row | Compound | IC50 (SK-BR-3) | IC50 (A-375) | IC50 (MDA-MB-231) | IC50 (MDA-MB-453) | inhibition (Tubulin (Sus scrofa)) | IC50 (RPMI-7951) | IC50 (M14)
1 | COc1cc(C(=O)c2cccc(-c3ccc(C(C)=O)cc3)n2)cc(OC)c1OC | 18.8 nM | 24 nM | 104 nM | 19.1 nM | – | 40.5 nM | 22.5 nM
2 | COc1cc(C(=O)c2cccc(-c3ccc(C)c(N)c3)n2)cc(OC)c1OC | 1.6 nM | 3 nM | 2.8 nM | 2.9 nM | – | 2 nM | 3 nM
3 | COc1cc(C(=O)c2cncc(-c3ccc(C)c(O)c3)c2)cc(OC)c1OC | 62.7 nM | 60.6 nM | 66.3 nM | 64.8 nM | – | 63.6 nM | 57.1 nM
4 | COc1cc(C(=O)c2cccc(-c3ccc(F)cc3)n2)cc(OC)c1OC | 36.6 nM | 25 nM | 20.7 nM | 21.4 nM | – | 23.2 nM | 15.4 nM
5 | COc1cc(C(=O)c2ccccn2)cc(OC)c1OC | > 1000 nM | > 1000 nM | > 1000 nM | > 1000 nM | – | > 1000 nM | > 1000 nM
6 | COc1cc(C(=O)c2cccc(-c3cccc([N+](=O)[O-])c3)n2)cc(OC)c1OC | 736 nM | 311 nM | 328 nM | 881 nM | – | 54.7 nM | 87.9 nM
7 | COc1cc(C(=O)c2cccc(-c3cncc4ccccc34)n2)cc(OC)c1OC | > 1000 nM | > 1000 nM | > 1000 nM | > 1000 nM | – | > 1000 nM | > 1000 nM
8 | COc1cc(C(=O)c2cccc(-c3cccc(C)c3)n2)cc(OC)c1OC | 61 nM | 62.9 nM | 82.4 nM | 63.6 nM | – | 60.7 nM | 46.1 nM
9 | COc1cc(C(=O)c2cccc(-c3cncnc3)n2)cc(OC)c1OC | > 1000 nM | > 1000 nM | > 1000 nM | > 1000 nM | – | > 1000 nM | > 1000 nM
10 | COc1cccc(-c2cccc(C(=O)c3cc(OC)c(OC)c(OC)c3)n2)c1 | 42.4 nM | 41.3 nM | 41.4 nM | 24.5 nM | – | 42.3 nM | 34.7 nM
11 | COc1cc(C(=O)c2cccc(-c3ccc(O)cc3)n2)cc(OC)c1OC | 386 nM | 42.4 nM | 27.7 nM | 28.5 nM | – | 22.2 nM | 28.9 nM
12 | COc1cc(C(=O)c2cccc(-c3cccc4[nH]ccc34)n2)cc(OC)c1OC | 19 nM | 9.3 nM | 17.9 nM | 16 nM | – | 6.5 nM | 12.2 nM
13 | COc1ccc(-c2cccc(C(=O)c3cc(OC)c(OC)c(OC)c3)n2)cc1 | 19.9 nM | 27.8 nM | 50.7 nM | 18.1 nM | – | 32.1 nM | 27.4 nM
14 | COc1cc(C(=O)c2cnc(-c3c[nH]c4ccccc34)[nH]2)cc(OC)c1OC [SABIZABULIN] | 13.3 nM | 10.4 nM | 8.2 nM | 13.6 nM | – | 8.8 nM | 8.9 nM
15 | COc1cc(C(=O)c2cccc(-c3c[nH]c4ccccc34)n2)cc(OC)c1OC | 19.7 nM | 19.2 nM | 23.8 nM | 8.5 nM | – | 19.5 nM | 17.8 nM
16 | COc1cc(C(=O)c2cccc(-c3ccc(C)c(C)c3)n2)cc(OC)c1OC | 8.8 nM | 9 nM | 20 nM | 15.8 nM | – | 8.4 nM | 8.1 nM
17 | COc1cc(C(=O)/C=C/c2cccc(-c3ccc(C)c(O)c3)n2)cc(OC)c1OC | > 1000 nM | > 1000 nM | > 1000 nM | > 1000 nM | – | > 1000 nM | > 1000 nM
18 | COc1cc(C(=O)c2cccc(-c3ccc4[nH]ccc4c3)n2)cc(OC)c1OC | 14.9 nM | 7 nM | 17.7 nM | 14.9 nM | – | 7.4 nM | 6.7 nM
19 | COc1cc(C(=O)c2cccc(-c3ccc(C(F)(F)F)cc3)n2)cc(OC)c1OC | 7 nM | 19.8 nM | 23.6 nM | 7.9 nM | – | 19.6 nM | 21.4 nM
20 | COc1cc(C(=O)c2cccc(-c3ccc(N)cc3)n2)cc(OC)c1OC | 16.2 nM | 13.2 nM | 27.1 nM | 13.4 nM | – | 9.4 nM | 12.1 nM
21 | COc1cc(C(=O)c2cccc(-c3cc(OC)c(OC)c(OC)c3)n2)cc(OC)c1OC | > 1000 nM | > 1000 nM | > 1000 nM | > 1000 nM | – | > 1000 nM | > 1000 nM
22 | COc1cc(C(=O)c2cccc(-c3ccnc4ccccc34)n2)cc(OC)c1OC | > 1000 nM | > 1000 nM | > 1000 nM | > 1000 nM | – | > 1000 nM | > 1000 nM
23 | COc1cc(C(=O)c2cccc(-c3ccc(C(N)=O)cc3)n2)cc(OC)c1OC | 66.5 nM | 87.4 nM | 39.2 nM | 76.3 nM | – | 36.3 nM | 47.9 nM
24 | COc1cc(C(=O)c2cccc(-c3c(C)cc(C)cc3C)n2)cc(OC)c1OC | > 1000 nM | > 1000 nM | > 1000 nM | > 1000 nM | – | > 1000 nM | > 1000 nM

Now from value to compound, other results behind:

Row | IC50 (SK-BR-3) | IC50 (A-375) | IC50 (MDA-MB-231) | IC50 (MDA-MB-453) | inhibition (Tubulin (Sus scrofa)) | Compound | IC50 (RPMI-7951) | IC50 (M14)
25 | > 1000 nM | > 1000 nM | > 1000 nM | > 1000 nM | – | COc1cc(C(=O)c2cccc(-c3ccncc3)n2)cc(OC)c1OC | > 1000 nM | > 1000 nM
26 | 86.4 nM | 67 nM | 220 nM | 47.2 nM | – | COc1cc(C(=O)c2cc(F)cc(-c3ccc(C)c(O)c3)c2)cc(OC)c1OC | 25.2 nM | 30 nM
27 | 13.4 nM | 24.2 nM | 20 nM | 13.5 nM | – | COc1cc(C(=O)c2cccc(-c3ccc(C)c(Cl)c3)n2)cc(OC)c1OC | 22.6 nM | 16.6 nM
28 | 4.4 nM | 5.9 nM | 6.5 nM | 6.5 nM | – | COc1cc(C(=O)c2cccc(-c3ccc(C)c(F)c3)n2)cc(OC)c1OC | 5.6 nM | 6.7 nM
29 | 12.5 nM | 18.7 nM | 25.3 nM | 11.4 nM | Active | COc1cc(C(=O)c2c[nH]c(-c3ccc(C)cc3)n2)cc(OC)c1OC | 6.4 nM | 6.9 nM
30 | 51.2 nM | 46.6 nM | 41 nM | 33.9 nM | – | COc1cc(C(=O)c2cccc(-c3cc[nH]c3)n2)cc(OC)c1OC | 45.2 nM | 45.1 nM
31 | 186 nM | 207 nM | 159 nM | 155 nM | – | C=C(c1cc(OC)c(OC)c(OC)c1)c1cccc(-c2ccc(C)cc2)n1 | 154 nM | 167 nM
32 | 38.9 nM | 41.8 nM | 34.7 nM | 25.2 nM | – | COc1cc(C(=O)c2cccc(-c3cccc(N)c3)n2)cc(OC)c1OC | 20.1 nM | 25.9 nM
33 | 101 nM | 35.8 nM | 41.4 nM | 29.1 nM | – | COc1cc(C(=O)c2cccc(-c3cccc(O)c3)n2)cc(OC)c1OC | 29.9 nM | 31.4 nM
34 | 12 nM | 15.6 nM | 35.2 nM | 7.1 nM | – | COc1cc(C(=O)c2cc(-c3ccc(C)cc3)ccn2)cc(OC)c1OC | 19.8 nM | 16.3 nM
35 | > 1000 nM | > 1000 nM | > 1000 nM | > 1000 nM | – | COc1cc(C(=O)c2cc(O)cc(-c3ccc(C)cc3)n2)cc(OC)c1OC | > 1000 nM | > 1000 nM
36 | 321 nM | 277 nM | 424 nM | 301 nM | – | COc1cc(C(=O)c2cccc(-c3ccc4[nH]c5ccccc5c4c3)n2)cc(OC)c1OC | 202 nM | 293 nM
37 | 22.4 nM | 19.5 nM | 21 nM | 16.5 nM | – | CCc1ccc(-c2cccc(C(=O)c3cc(OC)c(OC)c(OC)c3)n2)cc1 | 18.3 nM | 17.5 nM
38 | 15 nM | 18.1 nM | 17.2 nM | 17.8 nM | – | COc1cc(C(=O)c2cc(C)cc(-c3ccc(C)c(O)c3)n2)cc(OC)c1OC | 17.1 nM | 22.3 nM
39 | 12.3 nM | 12.3 nM | 28.1 nM | 10.6 nM | – | COc1cc(C(=O)c2cccc(-c3ccc(C#N)cc3)n2)cc(OC)c1OC | 11.9 nM | 12.8 nM
40 | 109 nM | 60.1 nM | 66.5 nM | 102 nM | – | COc1cc(C(=O)c2cccc(-c3cccnc3)n2)cc(OC)c1OC | 51.9 nM | 55.3 nM
41 | 5 nM | 11.4 nM | 9 nM | 6.9 nM | – | COc1cc(C(=O)c2cccc(-c3ccc([N+](=O)[O-])cc3)n2)cc(OC)c1OC | 12.9 nM | 10.9 nM
42 | 20 nM | 27.4 nM | 35.9 nM | 15.6 nM | – | COc1cc(C(=O)c2cccc(-c3ccc(C)c(O)c3)c2)cc(OC)c1OC | 15.7 nM | 16.2 nM
43 | 68 nM | 52.5 nM | 91.9 nM | 58.3 nM | – | COc1cc(C(=O)c2cccc(-c3ccccc3C)n2)cc(OC)c1OC | 54.2 nM | 27.4 nM
44 | 67.3 nM | 34.1 nM | 35.5 nM | 38.5 nM | – | COc1cc(C(=O)c2cccc(-c3ccsc3)n2)cc(OC)c1OC | 27.9 nM | 28.3 nM
